The source of these data is publication PMC9610606, “Design, Synthesis, In Silico Testing, and In Vitro Evaluation of Thiazolidinone-Based Benzothiazole Derivatives as Inhibitors of α-Amylase and α-Glucosidase” (Pharmaceuticals, 2022).

The target in one data set is α-glucosidase (Saccharomyces cerevisiae, UniProt P53341). The data set is classed as biochemical. On the procedure:
(§1) Biological profile of all the candidates were obtained through experimental-based analysis, as described in the inhibitory assay (5.3 and 5.4). […]
5.4 α-glucosidase inhibitory assay protocol
10 µl of the α-glucosidase enzyme, 20 µl of test samples (10-50 µg/ml) and 50 µl, of 0.1M […]
nitrophenyl—D-g lucopy ranoside solution was fu rther added as a substrate and again incubated for 20 min at 37 °C. Sodium carbonate (50 µl of 0.1M) was added to terminate the reaction. P- […]
conditions by omitting test samples. All the experiments were carried out in triplicates. The percentage inhibition was calculated by the formula.
% Inhibition = [(Ac – As) /Ac] × 100 Ac-absorbance for control, As-absorbance for standard. […]
(§2) PDB format. The process was further carried out in auto dock in which polar hydrogen and Kollman and Gasteiger charges were add ed to protein. Selected ligand was also prepared done by using torsion tree to detect root. Moreover, configuration file was generated along with X, Y and Z axis save both ligand and protein in PDBQT format in the same docking folder. At the end

For a further data set, the target named is T1, α-amylase (Sus scrofa, UniProt P00690).
T1 sequence (P00690 16-511): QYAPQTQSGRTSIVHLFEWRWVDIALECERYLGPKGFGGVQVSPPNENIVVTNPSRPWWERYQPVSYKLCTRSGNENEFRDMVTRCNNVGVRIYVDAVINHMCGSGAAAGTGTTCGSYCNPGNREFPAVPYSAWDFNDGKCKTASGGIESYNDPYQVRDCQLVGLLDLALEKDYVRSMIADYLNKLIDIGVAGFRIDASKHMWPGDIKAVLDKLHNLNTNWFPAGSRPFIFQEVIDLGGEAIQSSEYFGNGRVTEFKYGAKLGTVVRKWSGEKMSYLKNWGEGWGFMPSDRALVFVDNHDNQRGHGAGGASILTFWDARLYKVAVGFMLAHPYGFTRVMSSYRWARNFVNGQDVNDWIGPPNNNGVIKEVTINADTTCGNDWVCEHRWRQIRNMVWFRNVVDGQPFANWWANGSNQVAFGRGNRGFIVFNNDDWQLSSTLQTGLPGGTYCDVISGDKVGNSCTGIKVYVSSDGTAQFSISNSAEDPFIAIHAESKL
Description: In vitro α-amylase inhibitory assay. Format: biochemical. The method, then: as §1
absorbance was recorded using an ELISA microplate reader at 540 nm. […]
the standard. All the reactions were carried out in triplicates. The reaction mixture, devoid of the test sample, served as control. […]
as §2

Sequence of α-glucosidase (P53341 whole entry): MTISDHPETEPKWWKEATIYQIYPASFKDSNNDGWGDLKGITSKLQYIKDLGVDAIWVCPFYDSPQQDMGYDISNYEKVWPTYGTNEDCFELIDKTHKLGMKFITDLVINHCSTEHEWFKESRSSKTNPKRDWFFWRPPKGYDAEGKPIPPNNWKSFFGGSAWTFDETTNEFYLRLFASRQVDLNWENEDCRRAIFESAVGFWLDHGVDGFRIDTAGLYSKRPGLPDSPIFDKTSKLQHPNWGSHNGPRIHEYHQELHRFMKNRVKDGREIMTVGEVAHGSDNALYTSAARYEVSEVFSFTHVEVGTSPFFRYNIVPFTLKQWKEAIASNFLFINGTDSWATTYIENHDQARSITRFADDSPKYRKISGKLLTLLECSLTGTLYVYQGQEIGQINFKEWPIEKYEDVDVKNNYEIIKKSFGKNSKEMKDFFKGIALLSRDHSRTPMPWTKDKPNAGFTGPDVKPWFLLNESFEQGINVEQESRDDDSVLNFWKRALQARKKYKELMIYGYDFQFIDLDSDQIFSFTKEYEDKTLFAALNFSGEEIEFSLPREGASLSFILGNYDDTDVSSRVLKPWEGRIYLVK

As to `O=C1N/C(=N/c2nccs2)S/C1=C\c1ccc2ncsc2c1-c1cccc([N+](=O)[O-])c1Cl` [Compound 9, (2Z,5Z)-5-((7-(2-chloro-3-nitrophenyl)benzo[d]thiazol-6-yl)methylene)-2-(thiazol-2-ylimino)thiazolidin-4-one], the melting point (as a rule, the temperature of the solid-liquid transition) was in the range of 241 to 242 °C.

On to `CN(C)c1cc(/C=C2\S/C(=N\c3nccs3)NC2=O)cc2scnc12` [Compound 10, (2Z,5Z)-5-((4-(dimethylamino)benzo[d]thiazol-6-yl)methylene)-2-(thiazol-2-ylimino)thiazolidin-4-one], for which the melting point was in the range of 227 to 228 °C. `N#Cc1cccc(-c2c(/C=C3\S/C(=N\c4nccs4)NC3=O)ccc3ncsc23)c1` [Compound 15, 3-(6-((Z)-((Z)-4-oxo-2-(thiazol-2-ylimino)thiazolidin-5-ylidene)methyl)benzo[d]thiazol-7-yl)benzonitrile] came in with a melting point of 243 to 244 °C.

In the case of “(2Z,5Z)-5-((5-nitrobenzo [d]thiazol-6-yl) methylene)-2-(thiazol-2-ylimino)thiazolidin-4-one [Compound 1]”, the IC50 (commonly the concentration that inhibits the measured activity by half) is 8.8 ± 0.2 µM against α-glucosidase and 7.7 ± 0.2 µM at α-amylase. For the compound “(2Z,5Z)-5-((7-hydroxy-4-(trifluoromethyl)benzo[d]thiazol-6-yl)methylene)-2-(thiazol-2-ylimino)thiazolidin-4-one [Compound 6]”, the IC50 on α-glucosidase amounted to 3.2 ± 0.7 µM; against α-amylase it was 2.1 ± 0.7 µM.
